What was measured:
[1] = test system: production of MMP-1 by normal human epidermal keratinocytes; experiment: MMP-1 production by normal human epidermal keratinocytes cultured on plastic, ELISA; assay type: cell-based; conditions: TPA 20 ng/ml, positive control; cell culture supernatant 24 hours after treatment
Protocol: FIG. 5 illustrates the production of MMP-1 by normal human epidermal keratinocytes. The cells cultured on plastic are exposed to SSR or treated with TPA (20 ng/ml). The MMP-1 content is evaluated by ELISA 24 hours after treatment in the cell culture supernatant.
Human keratinocytes are isolated from normal human skin (breast surgery) and cultured on a nourishing layer of mitomycin-treated 3T3 mouse fibroblasts.
The MMP-1 content is measured by ELISA (Biotrak kit RPN 2610, Amersham Biotech, France) according to the supplier's instructions.
To determine whether the irradiation of SSR type could also modulate the production of MMP-1 by keratinocytes growing on plastic, the cells were exposed to an SSR radiation. The MMP-1 extracellular contents were quantified 24 hours after UV radiation.

[2] = test system: production of MMP-1 by normal human fibroblasts; experiment: Keratinocyte conditioned medium transferred onto fibroblasts; MMP-1 production by ELISA; assay type: cell-based; conditions: for Production of MMP-1: sodium butyrate 3 mM, fibroblast culture supernatant 24 hours after transfer
From the text: Normal human keratinocytes cultured as a monolayer on plastic were subjected to a UV-B radiation (10 mJ/cm^2). The experiment may also be performed in the presence of an SSR as defined in Example 1.
A Philips TL 20 W/12 tube equipped with a Kodacel filter to remove the wavelengths below 290 nm is used as UV-B source.
Just before irradiation, the culture medium of the sub-confluent cells (80-90% of confluence) is replaced with a PBS phosphate buffer to avoid the generation of phototoxic products by the medium. Under these conditions, no loss of viability of the cells is observed at the UV doses used.
After irradiation, the cells were placed in contact with an MEM culture medium free of serum and of growth factor, which are known to interfere with the detection or production of MMP-1, containing or not containing sodium butyrate NaBu (3 mM).
The conditioned medium of the keratinocytes (irradiated or not, in the presence or absence of sodium butyrate) was taken up 24 hours after irradiation and placed in contact with normal human fibroblasts.
The production of MMP-1 detected 24 hours later in the fibroblast culture supernatant was quantified by means of the “Biotrak MMP-1 human ELISA system” detection kit sold by Amersham, according to the supplier's indications.
The results are read using a LabSystems microplate reader equipped with a 450 nm filter.
The amount of MMP-1 is calculated relative to a calibration range prepared with a standard supplied with the kit, and is expressed in ng/ml.

## CCCCCCCCCCCCCC(=O)O[C@@H]1[C@@H](C)[C@@]2(O)[C@@H](C=C(CO)C[C@]3(O)C(=O)C(C)=C[C@@H]23)[C@H]2C(C)(C)[C@]12OC(C)=O [TPA]
[1]
  MMP-1 production by keratinocytes: leads to an accumulation of MMP-1 production

## CCCC(=O)[O-].[Na+] [sodium butyrate]
[2]; UV-B irradiated keratinocyte conditioned medium
  Effect on the photoinduced stimulation of MMP-1 production: capable of preventing this stimulatory effect on MMP-1 production
[2]; irradiated (UV-B 10 mJ/cm^2) keratinocyte conditioned medium
  Production of MMP-1: 16.97 ± 3.7 ng/mL
[2]; non-irradiated condition, versus control conditioned medium
  Inhibition of basal production of MMP-1 (factor): 3
[2]; non-irradiated keratinocyte conditioned medium
  Production of MMP-1: 4.84 ± 0.36 ng/mL

Source: patent publication US20050058611A1, “Preventing and/or combating collagen fiber degradation induced under conditions of natural exposure to sunlight” (L'OREAL, priority 2003, published 2005)
